# Laboratory results reported in paper PMC6013247, “Preclinical characterization of INCB053914, a novel pan-PIM kinase inhibitor, alone and in combination with anticancer agents, in models of hematologic malignancies” (PLoS ONE, 2018).
# Experiments:
# CLK3 = CLK3 (Homo sapiens, UniProt P49761); assay: Kinase selectivity panel; format: biochemical; settings: [ATP] = 1 mM
# [1] = target: Per-Arnt-Sim (PAS) kinase (Homo sapiens, UniProt Q96RG2); assay: PAS kinase activity, further evaluation; format: biochemical
# SGK1 = SGK1 (Homo sapiens, UniProt O00141); assay: Kinase selectivity panel; format: biochemical; settings: [ATP] = 1 mM
# Sequence of SGK1 (O00141 whole entry, species assumed): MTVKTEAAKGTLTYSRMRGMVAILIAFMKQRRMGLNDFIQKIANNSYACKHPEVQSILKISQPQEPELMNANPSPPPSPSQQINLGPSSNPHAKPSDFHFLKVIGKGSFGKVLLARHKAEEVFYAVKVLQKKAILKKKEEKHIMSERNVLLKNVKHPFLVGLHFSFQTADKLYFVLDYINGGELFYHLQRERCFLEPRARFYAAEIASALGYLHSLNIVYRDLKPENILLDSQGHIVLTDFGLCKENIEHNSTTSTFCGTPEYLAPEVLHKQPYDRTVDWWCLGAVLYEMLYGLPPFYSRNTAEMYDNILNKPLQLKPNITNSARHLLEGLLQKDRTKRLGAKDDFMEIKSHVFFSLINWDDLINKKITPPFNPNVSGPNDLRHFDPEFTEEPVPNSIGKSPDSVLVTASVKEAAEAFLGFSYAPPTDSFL
# IKKA = IKKA (Homo sapiens, UniProt O15111); assay: Kinase selectivity panel; format: biochemical; settings: [ATP] = 1 mM
# ROCK1 = ROCK1 (Homo sapiens, UniProt Q13464); assay: Kinase selectivity panel; format: biochemical; settings: [ATP] = 1 mM
# Sequence of ROCK1 (Q13464 whole entry): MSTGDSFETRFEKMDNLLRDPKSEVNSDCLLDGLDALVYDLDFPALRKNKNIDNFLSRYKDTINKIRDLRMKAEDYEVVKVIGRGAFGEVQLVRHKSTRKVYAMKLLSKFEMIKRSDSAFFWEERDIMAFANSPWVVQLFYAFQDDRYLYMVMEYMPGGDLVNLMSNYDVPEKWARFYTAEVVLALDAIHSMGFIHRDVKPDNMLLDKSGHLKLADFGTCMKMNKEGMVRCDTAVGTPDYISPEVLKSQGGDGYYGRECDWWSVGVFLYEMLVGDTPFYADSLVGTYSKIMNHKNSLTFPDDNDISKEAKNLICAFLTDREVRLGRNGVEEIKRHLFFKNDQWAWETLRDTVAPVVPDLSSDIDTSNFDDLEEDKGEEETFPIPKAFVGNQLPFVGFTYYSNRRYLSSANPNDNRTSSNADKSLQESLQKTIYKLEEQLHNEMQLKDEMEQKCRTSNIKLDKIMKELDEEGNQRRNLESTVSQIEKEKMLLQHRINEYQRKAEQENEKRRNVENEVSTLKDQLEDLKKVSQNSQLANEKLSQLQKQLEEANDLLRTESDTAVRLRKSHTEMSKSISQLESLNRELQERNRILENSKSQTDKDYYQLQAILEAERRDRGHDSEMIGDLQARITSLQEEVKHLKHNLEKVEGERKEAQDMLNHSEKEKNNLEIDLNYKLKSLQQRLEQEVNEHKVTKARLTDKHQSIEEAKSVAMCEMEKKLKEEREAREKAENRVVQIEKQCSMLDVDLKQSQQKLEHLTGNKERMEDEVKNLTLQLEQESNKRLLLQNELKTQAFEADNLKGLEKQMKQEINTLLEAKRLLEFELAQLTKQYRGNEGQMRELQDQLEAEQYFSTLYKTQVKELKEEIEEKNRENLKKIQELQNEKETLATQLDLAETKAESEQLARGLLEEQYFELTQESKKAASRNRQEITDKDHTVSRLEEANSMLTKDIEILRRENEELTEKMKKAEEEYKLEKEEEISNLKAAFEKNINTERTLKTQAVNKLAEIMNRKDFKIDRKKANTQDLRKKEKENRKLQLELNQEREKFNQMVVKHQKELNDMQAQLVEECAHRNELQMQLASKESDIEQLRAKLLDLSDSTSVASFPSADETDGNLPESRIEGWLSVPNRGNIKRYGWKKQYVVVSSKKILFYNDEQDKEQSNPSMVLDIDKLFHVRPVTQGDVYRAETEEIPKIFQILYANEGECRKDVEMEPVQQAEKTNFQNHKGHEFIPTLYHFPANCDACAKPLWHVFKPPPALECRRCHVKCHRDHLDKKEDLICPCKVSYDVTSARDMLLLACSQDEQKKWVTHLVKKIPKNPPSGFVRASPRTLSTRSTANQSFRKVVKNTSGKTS
# SYK = SYK (Homo sapiens, UniProt P43405); assay: Kinase selectivity panel; format: biochemical; settings: [ATP] = 1 mM
# CHEK1 = CHEK1 (Homo sapiens, UniProt O14757); assay: Kinase selectivity panel; format: biochemical; settings: [ATP] = 1 mM
# Sequence of CHEK1 (O14757 whole entry): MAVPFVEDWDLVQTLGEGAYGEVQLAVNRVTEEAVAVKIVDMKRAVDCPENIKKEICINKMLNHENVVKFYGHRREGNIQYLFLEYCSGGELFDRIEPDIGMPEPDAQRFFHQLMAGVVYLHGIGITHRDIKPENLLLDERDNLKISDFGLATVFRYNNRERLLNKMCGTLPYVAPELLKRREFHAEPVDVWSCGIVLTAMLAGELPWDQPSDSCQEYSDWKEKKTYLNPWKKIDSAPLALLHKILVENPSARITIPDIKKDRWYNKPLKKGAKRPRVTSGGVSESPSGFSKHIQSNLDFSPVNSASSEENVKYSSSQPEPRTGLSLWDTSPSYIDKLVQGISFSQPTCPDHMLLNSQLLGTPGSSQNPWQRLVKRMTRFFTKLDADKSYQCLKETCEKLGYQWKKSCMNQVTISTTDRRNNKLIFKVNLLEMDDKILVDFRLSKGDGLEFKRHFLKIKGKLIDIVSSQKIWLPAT
# TIE2 = TIE2 (Homo sapiens, UniProt Q02763); assay: Kinase selectivity panel; format: biochemical; settings: [ATP] = 1 mM
# LOK = LOK (Homo sapiens, UniProt O94804); assay: Kinase selectivity panel; format: biochemical; settings: [ATP] = 1 mM
# Sequence of LOK (O94804 whole entry): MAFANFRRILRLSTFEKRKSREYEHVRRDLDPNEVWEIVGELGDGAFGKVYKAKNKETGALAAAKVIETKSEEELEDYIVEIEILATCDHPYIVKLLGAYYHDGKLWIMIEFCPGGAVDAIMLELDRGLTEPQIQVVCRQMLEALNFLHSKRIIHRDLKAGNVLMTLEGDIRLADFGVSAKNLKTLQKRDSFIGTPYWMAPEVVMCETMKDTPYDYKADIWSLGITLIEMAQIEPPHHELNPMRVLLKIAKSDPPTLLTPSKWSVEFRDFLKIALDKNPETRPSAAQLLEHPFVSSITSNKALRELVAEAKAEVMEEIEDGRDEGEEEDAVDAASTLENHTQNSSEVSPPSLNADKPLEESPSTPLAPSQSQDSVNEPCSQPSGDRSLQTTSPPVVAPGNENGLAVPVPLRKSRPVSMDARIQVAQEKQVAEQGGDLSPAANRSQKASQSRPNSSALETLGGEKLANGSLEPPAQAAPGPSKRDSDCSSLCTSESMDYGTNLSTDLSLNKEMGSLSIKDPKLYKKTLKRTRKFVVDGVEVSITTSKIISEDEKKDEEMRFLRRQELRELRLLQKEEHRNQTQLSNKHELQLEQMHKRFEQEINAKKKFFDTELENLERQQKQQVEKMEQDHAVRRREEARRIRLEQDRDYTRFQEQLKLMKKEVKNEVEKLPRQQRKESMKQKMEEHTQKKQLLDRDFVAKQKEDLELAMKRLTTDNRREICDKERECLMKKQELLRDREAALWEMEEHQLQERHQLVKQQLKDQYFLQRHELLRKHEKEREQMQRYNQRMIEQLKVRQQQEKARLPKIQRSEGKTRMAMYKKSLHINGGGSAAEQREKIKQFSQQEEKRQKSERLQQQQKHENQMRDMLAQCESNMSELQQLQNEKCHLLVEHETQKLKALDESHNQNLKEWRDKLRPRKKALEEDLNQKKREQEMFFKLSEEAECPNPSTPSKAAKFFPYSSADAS
# KG-1 = assay: Cell proliferation assay ([3H]-thymidine); format: cell-based, human; settings: KG-1 (AML)
# Method: (§1) The antiproliferative effects of INCB053914 on hematologic tumor cells were investigated using assays described in the Supporting Information (S2 File).
# (§2) Cell proliferation assays. […] After 3 to 4 days, [^3H]-thymidine (1 μCi/well) (PerkinElmer) in PBS (10 μl) was added to the cell culture for an additional 12 hours. The incorporated radioactivity was separated by filtration with water through GF/B filters (Packard Bioscience, Meriden, Connecticut) and measured by liquid scintillation counting with a TopCount (Packard Bioscience).
# MOLM-16 = assay: Cell proliferation assay ([3H]-thymidine); format: cell-based, human; settings: MOLM-16 (AML)
# Method: as §1, §2
# [2] = test system: BAD phosphorylation in whole blood spiked with MOLM-16 cells; assay: BAD phosphorylation in whole blood samples spiked with tumor cells, treated ex vivo; format: cell-based; settings: MOLM16
# TGFBR1 = TGFBR1 (Homo sapiens, UniProt P36897); assay: Kinase selectivity panel; format: biochemical; settings: [ATP] = 1 mM
# Sequence of TGFBR1 (P36897 34-503, species assumed): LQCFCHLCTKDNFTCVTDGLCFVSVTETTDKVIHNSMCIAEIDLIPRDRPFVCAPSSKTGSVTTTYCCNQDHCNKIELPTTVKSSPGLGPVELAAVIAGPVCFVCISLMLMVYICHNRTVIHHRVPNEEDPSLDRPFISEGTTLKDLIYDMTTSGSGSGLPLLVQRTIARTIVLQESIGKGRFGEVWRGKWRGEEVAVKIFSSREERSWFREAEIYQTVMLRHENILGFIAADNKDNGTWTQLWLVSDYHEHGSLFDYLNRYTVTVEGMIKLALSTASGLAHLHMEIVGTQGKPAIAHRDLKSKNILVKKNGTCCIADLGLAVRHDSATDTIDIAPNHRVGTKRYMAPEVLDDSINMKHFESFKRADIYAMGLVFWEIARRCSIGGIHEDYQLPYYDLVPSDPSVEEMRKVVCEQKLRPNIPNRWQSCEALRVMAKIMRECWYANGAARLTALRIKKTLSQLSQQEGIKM
# LCK = LCK (Homo sapiens, UniProt P06239); assay: Kinase selectivity panel; format: biochemical; settings: [ATP] = 1 mM
# GSK3B = GSK3B (Homo sapiens, UniProt P49841); assay: Kinase selectivity panel; format: biochemical; settings: [ATP] = 1 mM
# Sequence of GSK3B (P49841 whole entry): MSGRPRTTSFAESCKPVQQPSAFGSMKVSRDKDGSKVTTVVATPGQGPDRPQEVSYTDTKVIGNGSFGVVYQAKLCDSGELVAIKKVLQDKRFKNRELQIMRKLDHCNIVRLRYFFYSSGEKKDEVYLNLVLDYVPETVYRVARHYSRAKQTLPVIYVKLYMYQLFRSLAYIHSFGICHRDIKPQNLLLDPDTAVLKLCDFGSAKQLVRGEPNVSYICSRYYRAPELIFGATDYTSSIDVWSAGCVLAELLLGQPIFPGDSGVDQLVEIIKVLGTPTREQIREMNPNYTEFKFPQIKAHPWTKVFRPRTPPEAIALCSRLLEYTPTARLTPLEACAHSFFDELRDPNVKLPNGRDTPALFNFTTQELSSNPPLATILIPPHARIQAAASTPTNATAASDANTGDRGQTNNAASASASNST
# CDK2 = CDK2 (Homo sapiens, UniProt P24941); assay: Kinase selectivity panel; format: biochemical; settings: [ATP] = 1 mM
# PIM2 = PIM2 (Homo sapiens, UniProt Q9P1W9); assay: Kinase selectivity panel; format: biochemical; settings: [ATP] = 1 mM
# RSK2 = RSK2 (Homo sapiens, UniProt P51812); assay: Kinase selectivity panel; format: biochemical
# Sequence of RSK2 (P51812 whole entry): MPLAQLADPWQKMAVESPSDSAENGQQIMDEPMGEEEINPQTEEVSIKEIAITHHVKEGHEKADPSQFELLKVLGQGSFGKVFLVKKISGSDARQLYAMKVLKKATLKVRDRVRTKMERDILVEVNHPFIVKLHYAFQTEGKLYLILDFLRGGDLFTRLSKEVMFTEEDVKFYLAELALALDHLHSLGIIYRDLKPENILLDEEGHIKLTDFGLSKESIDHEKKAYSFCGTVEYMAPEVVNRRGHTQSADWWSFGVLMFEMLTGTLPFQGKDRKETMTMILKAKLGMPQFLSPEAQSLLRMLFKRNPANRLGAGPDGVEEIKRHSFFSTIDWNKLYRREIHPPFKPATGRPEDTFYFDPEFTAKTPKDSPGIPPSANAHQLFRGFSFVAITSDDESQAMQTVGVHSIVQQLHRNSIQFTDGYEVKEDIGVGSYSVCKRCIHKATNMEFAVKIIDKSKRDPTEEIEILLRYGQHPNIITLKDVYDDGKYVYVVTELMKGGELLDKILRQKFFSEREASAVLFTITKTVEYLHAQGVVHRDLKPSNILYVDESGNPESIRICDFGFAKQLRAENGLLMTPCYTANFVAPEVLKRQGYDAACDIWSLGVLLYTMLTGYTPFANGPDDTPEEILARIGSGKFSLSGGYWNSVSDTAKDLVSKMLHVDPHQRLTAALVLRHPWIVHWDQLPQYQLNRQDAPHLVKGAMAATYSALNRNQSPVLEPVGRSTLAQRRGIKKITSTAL
# [3] = test system: pBAD, pSTAT3 and MYC in INA-6 (MM) tumors; assay: pBAD, pSTAT3 and MYC levels in INA-6 (MM) tumors; format: in vivo, mouse; settings: INA-6 (MM) tumors in mice
# Method: The PI3Kδ inhibitor INCB050465 (10 mg/kg once a day orally) was evaluated in combination with INCB053914 (30 mg/kg once a day orally) in mice bearing Pfeiffer (DLBCL) xenografts, a model sensitive to PI3Kδ inhibition (eight mice/group). Cytarabine was administered via intraperitoneal injection at a standard dose of 20 mg/kg twice a week, in combination with oral INCB053914 at a submaximally efficacious dose of 20 mg/kg twice a day for 12 days in mice bearing human KG-1 AML xenografts, a cytarabine-sensitive model (eight mice/group). The oral JAK1-selective inhibitor itacitinib (60 mg/kg twice a day orally) was assessed in combination with INCB053914 (100 mg/kg twice a day orally) after 8 days of administration to SCID mice bearing INA-6 (MM) xenografts (eight mice/group), a model sensitive to JAK inhibition.
# FAK = FAK (Homo sapiens, UniProt Q05397); assay: Kinase selectivity panel; format: biochemical; settings: [ATP] = 1 mM
# [4] = Plasma concentrations of INCB053914 in tumor-bearing mice; format: in vivo, mouse; settings: up to 16 hours post oral administration, MOLM-16 and KMS-12-BM tumor-bearing mice
# Method: Human MOLM-16 (AML) and KMS-12-BM (MM) xenografts were established in SCID mice. For the evaluation of intratumoral pBAD inhibition, tumor-bearing mice (three to eight mice/group) were treated with a single oral dose of INCB053914 at doses ranging from 0 (vehicle) to 100 mg/kg. In one representative experiment, mice were sacrificed 4 hours after a single dose, and tumors were collected to analyze the levels of pBAD relative to those of vehicle-administered controls. Plasma samples were collected for pharmacokinetic analysis.
# Concentrations of INCB053914 in plasma were analyzed using liquid chromatography tandem–mass spectrometry at 2, 4, 8, and 16 hours postdose (see Supporting Information, S3 File).
# Blood samples from each study were collected using EDTA and centrifuged to obtain plasma. The calibration curves were prepared in mouse plasma (BioreclamationIVT, Westbury, New York). Samples (50 µl) were placed in a 2-ml square well plate (Costar, Corning, New York). Acetonitrile/methanol 9/1 v/v (550 µl) containing an internal standard was added for precipitation of the protein. The 96-well plate was covered, vortexed for 5 minutes, and centrifuged for 10 minutes at 3,000 rpm. […] The samples were analyzed for INCB053914 by liquid chromatography tandem–mass spectrometry using gradient high-performance liquid chromatography and atmospheric pressure chemical ionization.
compound,measurement,setting,value
"C[C@H]1CN(c2c(NC(=O)c3ccc(F)c(-c4c(F)cccc4F)n3)cnc3c2CC[C@H]3O)C[C@@H](N)[C@@H]1O.O=P(O)(O)O [INCB053914, N-((R)-4-((3R,4R,5S)-3-amino-4-hydroxy-5-methylpiperidin-1-yl)-7-hydroxy-6,7-dihydro-5H-cyclopenta[b]pyridin-3-yl)-6-(2,6-difluorophenyl)-5-fluoropicolinamide phosphate]",IC50,CLK3,> 20 µM
same,effect on PAS kinase activity relative to PIM2,[1],approximately equipotent effects on PIM2 and PAS kinase activities
same,IC50,SGK1,> 20 µM
same,IC50,IKKA,> 20 µM
same,IC50,ROCK1,> 20 µM
same,IC50,SYK,> 20 µM
same,IC50,CHEK1,> 20 µM
same,IC50,TIE2,> 20 µM
same,IC50,LOK,> 20 µM
same,GI50,"KG-1; Homo sapiens, read-out: Mean (± SD) GI50",0.0179 ± 0.0071 µM
same,Mean (SD) maximum inhibition,KG-1,88.3 ± 3.8%
same,GI50,"MOLM-16; Homo sapiens, MOLM16, read-out: Mean (± SD) GI50",0.0033 µM
same,Mean (SD) maximum inhibition,MOLM-16,99.3 ± 0.3%
same,IC50,[2],0.076 µM
same,IC50,TGFBR1,> 20 µM
same,IC50,LCK,> 20 µM
same,IC50,GSK3B,> 20 µM
same,IC50,CDK2,> 20 µM
same,IC50,PIM2,0.015 µM
same,IC50,RSK2; [ATP] = 1 mM,7.12 µM
same,IC50,RSK2; as given in the text,7.1 µM
same,MYC levels,[3],decreased MYC levels
same,level of pBAD,[3],decrease
same,IC50,FAK,> 20 µM
same,plasma concentrations versus dose,[4],suggested dose proportionality
